Results from the NIST ThermoML archive (doi:10.1021/je500647a).

Test: mn = molality of the nth substance listed, in mol/kg
Conditions: 101 kPa, Liquid, Capillary tube (Ostwald / Ubbelohde) method

CC(C)C[C@H](N)C(=O)O [L-leucine] + O
viscosity [mPa·s]
Conditions	293.15 K	298.15 K	303.15 K	308.15 K	313.15 K
m1 = 0.025	1.02	0.8932	0.7948	0.7187	0.6481
m1 = 0.05	1.022	0.8936	0.8021	0.7237	0.6571
m1 = 0.1	1.026	0.8992	0.8011	0.7223	0.6533

O=C[C@H](O)[C@H](O)[C@H](O)CO [D-ribose] + O
viscosity [mPa·s]
Conditions	m1 = 0.05	m1 = 0.055	m1 = 0.06	m1 = 0.065	m1 = 0.07	m1 = 0.075	m1 = 0.08	m1 = 0.085	m1 = 0.09	m1 = 0.1
293.15 K	1.019	1.021	1.022	1.024	1.026	1.027	1.029	1.031	1.033	1.035
298.15 K	0.9032	0.9047	0.906	0.9073	0.9085	0.91	0.9114	0.9127	0.9143	0.9168
303.15 K	0.8071	0.8082	0.8092	0.8101	0.8113	0.8125	0.8135	0.8146	0.8157	0.8183
308.15 K	0.7261	0.727	0.7277	0.7286	0.7292	0.7302	0.7313	0.7321	0.7333	0.7353
313.15 K	0.657	0.6576	0.6581	0.6587	0.6595	0.6601	0.6607	0.6616	0.6626	0.6642

OC[C@H]1OC(OC[C@H]2OC(O[C@]3(CO)O[C@H](CO)[C@@H](O)[C@@H]3O)[C@H](O)[C@@H](O)[C@@H]2O)[C@H](O)[C@@H](O)[C@H]1O (stereo partly drawn) [D-(+)-raffinose] + O
viscosity [mPa·s]
Conditions	m1 = 0.05	m1 = 0.055	m1 = 0.06	m1 = 0.065	m1 = 0.07	m1 = 0.075	m1 = 0.08	m1 = 0.085	m1 = 0.09	m1 = 0.1
293.15 K	1.056	1.061	1.066	1.071	1.079	1.087	1.095	1.101	1.108	1.118
298.15 K	0.9281	0.9343	0.94	0.9448	0.9488	0.9553	0.9597	0.9674	0.9724	0.9824
303.15 K	0.8259	0.8302	0.8349	0.8402	0.8435	0.8485	0.8521	0.8569	0.8631	0.8719
308.15 K	0.7393	0.7424	0.7474	0.7516	0.7547	0.7585	0.7625	0.7663	0.77	0.7775
313.15 K	0.6657	0.6688	0.673	0.6764	0.6792	0.6822	0.6857	0.6881	0.6925	0.698

NCC(=O)O [2-aminoacetic acid] + O
viscosity [mPa·s]
Conditions	293.15 K	298.15 K	303.15 K	308.15 K	313.15 K
m1 = 0.025	1.011	0.8923	0.7994	0.7201	0.6549
m1 = 0.05	1.016	0.8947	0.8017	0.7213	0.6563
m1 = 0.1	1.022	0.9011	0.8056	0.7236	0.6582
